Experimental findings from patent US11419834B2, “Methods for treating diseases or infections caused by or associated with H. pylori using a halogenated salicylanilide” (Rhode Island Hospital, priority 2019, dated 2022) are described below.

≈ marks a conversion by molar mass, not a printed value. Like-named read-outs stand apart in the source and are kept apart here. Where only a bound is given, the exact number is not on record here.

In one assay the test system is H. pylori bacteria. The assay is described as follows: Scanning electron microscopy of morphology. Format: cell-based, Helicobacter pylori.
The test system of assay [1] is H. pylori reference strain 60190 (ATCC 49503). The assay is described as follows: Broth microdilution assay, MIC. The following applies: Helicobacter pylori, ATCC49503, 72 h; H. pylori strain 60190; Müller-Hinton broth + 10% FBS, 3 days. In kind it is cell-based. On the technique in general: Dilution methods test growth across graded concentrations, often in twofold steps.

The test system of another assay is H. pylori strain 60190. The assay is described as follows: Minimum bactericidal concentration (plating from MIC assay). In kind it is cell-based, Helicobacter pylori.
In a further assay the test system is H. Pylori 49503. The assay is described as follows: Broth microdilution assay, MIC. The following applies: Helicobacter pylori; strain H. Pylori 49503. In kind it is cell-based.
The next assay relates to H. Pylori 43504. The assay is described as follows: Broth microdilution assay, MIC. Format: cell-based. The following applies: Helicobacter pylori; strain H. Pylori 43504.
A further assay has as its system H. Pylori 51932. The assay is described as follows: Broth microdilution assay, MIC. In kind it is cell-based. The following applies: Helicobacter pylori; strain H. Pylori 51932.
For assay [2], the system named is H. pylori (strain 60190). The assay is described as follows: Effect of pH on MIC (broth microdilution). In kind it is cell-based, Helicobacter pylori. The following applies: pH 7.0 to 5.2. Here is the method:
The pH was adjusted to acidic condition with 1 N HCl. The minimal bactericidal concentration (MBC) was determined by plating 5 μL of broth culture from the MIC assay onto Müller-Hinton agar (BD Biosciences) supplemented with 10% FBS. After 72 h, the lowest concentration at which colonies were not observed was reported as the MBC.

Assay [3] deals with H. pylori bacteria (strain 60190). The assay is described as follows: Multi-step mutation frequency (serial passage resistance study). Format: cell-based, Helicobacter pylori. Particulars: for increase in MIC during continuous passage: passaged sequentially over 30 days. The procedure: To determine whether H. pylori can develop resistance against niclosamide, bacterial cells were suspended in MHB with 10% FBS at OD600=0.06 in the presence of serially diluted niclosamide and incubated, as described in the antibiotic susceptibility assays sub-section. The standard antibiotics amoxicillin and clarithromycin were used as controls. From the highest drug concentration allowing visible growth at sub-MIC concentration, aliquots were diluted (1:40) into fresh medium. These were used to inoculate the second set of serial drug dilutions as described by Dalhoff et al. (Clin Infect Ds. 2001 Mar. 15; 32 Suppl, 1:S16-22). After a 3-day incubation, H. pylori bacteria (strain 60190) were passaged sequentially over 30 days and the OD was recorded.

Assay [4] deals with H. pylori (strain 60190) adhered to AGS cells. The assay is described as follows: Adhesion of H. pylori to AGS cells. Format: cell-based, Helicobacter pylori. Particulars: 0.1 μg/mL (10×MIC). The procedure: (§1) The AGS (Gastric adenocarcinoma cell lines) cell line was used to examine inhibition of adhesion and invasion of H. pylori (strain 60190) by niclosamide, as described by Schmitt et al. (Front Cell Infect Microbiol. 2013; 3:93). The AGS cells were grown in Dulbecco's Modified Eagle Medium (DMEM, ex. Gibco), supplemented with 10% fetal bovine serum (Gibco) and 1% penicillin/streptomycin (Gibco) and maintained at 37° C. in 5% C02. Then, 5×10^5 cells in antibiotic and serum-free DMEM were seeded in 6-well plates 24 hours prior to infection. H. pylori bacteria at a multiplicity of infection (MOI)=100 were added and allowed to adhere to the surface of the AGS cells. Planktonic bacteria were removed after 2 hours and DMEM with niclosamide (2×MIC) was then added to the wells containing the AGS. The mammalian cells were lysed by 0.1% saponin after 20 hours of incubation and the adhered bacteria were then serially diluted, plated in Brucella agar supplemented with 10% FBS, and incubated as described above. A control arm of DMSO and a comparator using amoxicillin at a concentration of 0.1 μg/mL (10×MIC) was also assessed. […]

Assay [5] has as its system AGS cells invaded by H. pylori. The assay is described as follows: Invasion, gentamicin protection assay. The following applies: 0.1 μg/mL, 20 hours, AGS cells. Format: cell-based, Helicobacter pylori. The procedure: as §1
The subject of assay [6] is IL-8 secretion from MKN-28 cells co-cultured with H. pylori. The assay is described as follows: IL-8 secretion, real-time RT-PCR. Format: cell-based. The following applies: 10× MIC, H. pylori infected MKN-28 cells. The procedure:
Real-Time (RT-PCR) was carried out to determine whether niclosamide has an inhibitory role in IL-8 secretion. MKN-28 cells were co-cultured with H. pylori (MOI=100) in the presence or absence of a test compound. At 24 hours, RNA was isolated from the infected host cells. cDNA was synthesized using the Verso cDNA (Invitrogen) synthesis kit according to manufacturer instructions. Quantitative real-time reactions were carried out in a Bio-Rad iTaq universal SYBR (Bio-Rad, Hercules, Calif. USA) one-step kit and a CFX98 real-time PCR cycler as described by Zheng et al. (Future Med. Chem. 2018, February; 10(3):283-296). The relative gene expression was calculated from Cq values using a ΔΔCq method.
On the technique in general: Quantitative PCR measures a nucleic acid by following its amplification.

Assay [7] has as its system H. pylori (strain 60190). The assay is described as follows: Checkerboard synergy assay (FICI). Format: cell-based, Helicobacter pylori. The following applies: for FICI value Niclosamide: test compound in combination with niclosamide. Here is the method: References to “synergy” of the halogenated salicylanilide with other therapeutic agents described herein refer to an activity which is greater than the sum of the individual agents used alone. The degree of antimicrobial synergy may be assessed by calculating the fractional inhibitory concentration index (FICI) using the checkerboard assay described in the Examples herein. For two agents A and B, the FICI is calculated as: FICI=MICA-B in combination/(MICA alone+MICB alone) Synergy occurs when the FICI is ≤0.5; partial synergy for 0.5≤FICI≤1.0; no interaction […]; and antagonism FICI >4.0.
Antibacterial synergy was tested using the checkerboard assay using the method described in Zheng Z et al. (Antimicrob. Agents Chemother. 2017 July; 61(7)).
Niclosamide was combined with antibiotics and proton pump inhibitors (PPIs). Cultures of H. pylori (strain 60190) were adjusted to OD600=0.06 and added to compound pairs that had been serially diluted in the same 96-well plates, vertically for one compound and horizontally for the other. Assays were carried out in triplicate as described in the antibacterial susceptibility assay described above. The combinatorial inhibitory concentration was indicated by the fractional inhibitory concentration index (FICI): FICI=MICA combination/MICA alone+MICB combination/MICB alone Paired combinations of compounds and their observed FICI are listed in Table 4. Synergistic activity, where the combined antibacterial effect of the 2 antimicrobial agents is more than the sum of their effects alone, is defined by FICI 0.5, antagonism by FICI >4.0 and ‘no interaction’ by FICI >0.5-4.0.

The mark [8] stands for this setting: Helicobacter pylori, H. pylori strain 60190, read-out: MBC.

With `N#CC(C#N)=NNc1cccc(Cl)c1` [CCCP, carbonyl cyanide m-chlorophenylhydrazone], in the assay on H. pylori bacteria (10 μM), the “morphology by SEM” value was “morphological changes and decreased cell size”.

Regarding `Cc1cc(C(C#N)c2ccc(Cl)cc2)c(Cl)cc1NC(=O)c1cc(I)cc(I)c1O` (stereo not shown) [Closantel, closantel], in [1], the MIC amounted to 16 µg/mL. The minimum bactericidal concentration (MBC) against H. pylori strain 60190 (H. pylori strain 60190) is 16.0 µg/mL (≈ 24.1 µM); in the assay on H. pylori strain 60190 (setting [8]) it was 16 µg/mL (≈ 24.1 µM).

The compound `O=C(Nc1ccc(Oc2ccc(Cl)cc2)c(Cl)c1)c1cc(I)cc(I)c1O` [Rafoxanide, rafoxanide] displayed an MBC with H. pylori strain 60190 (Helicobacter pylori, 60190) of 8 µg/mL (≈ 12.8 µM).

Consider `O=C(Nc1cc(Cl)cc(Cl)c1O)c1c(O)c(Cl)cc(Cl)c1Cl` [Oxyclozanide, oxyclozanide], for which, in assay [1], the minimal inhibitory concentration (MIC) is 2 µg/mL. In addition, in the assay on H. pylori strain 60190 (setting [8]), the MBC came to 4 µg/mL (≈ 9.96 µM).

Consider `CC1(C)S[C@@H]2[C@H](NC(=O)[C@H](N)c3ccc(O)cc3)C(=O)N2[C@H]1C(=O)O` [Amoxicillin, amoxicillin], for which the minimum inhibitory concentration (MIC) in assay [1] stood at 0.01 µg/mL; against H. Pylori 49503, 0.01 µg/mL (≈ 0.0274 µM); in the assay with H. Pylori 43504, 0.03 µg/mL (≈ 0.0821 µM); against H. Pylori 51932 it was 0.01 µg/mL (≈ 0.0274 µM). Besides, the MBC in the assay with H. pylori strain 60190 (setting [8]) was 0.5 µg/mL (≈ 1.37 µM). Also, in the assay with H. pylori (strain 60190) [2], the “change of MIC at acidic pH compared to pH 7.0” value is listed as “increased”. Further, the “change in MIC through at least 10 passages” value in assay [3] is on record as 2 fold. Moreover, in [3], the “increase in MIC during continuous passage” value was found to be 2 fold. For the same compound, the “effect on bacterial adhesion” value in [4] is on record as “eliminated bacterial adhesion completely”. In assay [5], the “effect on intracellular bacteria” value was “eliminated bacteria completely”. Moreover, the “effect on IL-8 secretion” value in [6] is recorded as “inhibited IL-8 secretion”. Besides, the “FICI value Niclosamide” value in the assay on H. pylori (strain 60190) [7] was determined as 2.0. In addition, the “morphology by SEM” value with H. pylori bacteria (0.1 μg/mL (10×MIC)) was “morphological changes and decreased cell size”.

On to `CC[C@H]1OC(=O)[C@H](C)[C@@H](O[C@H]2C[C@@](C)(OC)[C@@H](O)[C@H](C)O2)[C@H](C)[C@@H](O[C@@H]2O[C@H](C)C[C@H](N(C)C)[C@H]2O)[C@](C)(OC)C[C@@H](C)C(=O)[C@H](C)[C@@H](O)[C@]1(C)O` [Clarithromycin, clarithromycin], for which the MIC in assay [1] came to 0.0025 µg/mL; with H. Pylori 49503, 0.0025 µg/mL (≈ 0.00334 µM); against H. Pylori 43504, 0.005 µg/mL (≈ 0.00668 µM); against H. Pylori 51932, 0.005 µg/mL (≈ 0.00668 µM). Further, the minimum bactericidal concentration (MBC) in the assay on H. pylori strain 60190 (setting [8]) was determined as 0.25 µg/mL (≈ 0.334 µM). In addition, the “change of MIC at acidic pH compared to pH 7.0” value in the assay with H. pylori (strain 60190) [2] is “increased”. In addition, in assay [3], the “change in MIC through at least 10 passages” value is listed as 2 fold. Besides, in assay [3] (continuous exposure, 30 day study), the “exposure time after which MIC increased” value is over 24 days. In addition, the “increase in MIC during continuous passage” value in assay [3] was 4 fold. In addition, the “FICI value Niclosamide” value in the assay with H. pylori (strain 60190) [7] is on record as 1.0.

On to `COc1ccc2[nH]c([S+]([O-])Cc3ncc(C)c(OC)c3C)nc2c1` (stereo not shown) [Omeprazole, omeprazole], for which, in the assay with H. pylori (strain 60190) [7], the “FICI value Niclosamide” value is 0.625.

As for `COc1ccnc(C[S+]([O-])c2nc3ccc(OC(F)F)cc3[nH]2)c1OC` (stereo not shown) [Pantoprazole, pantoprazole], the “FICI value Niclosamide” value in the assay on H. pylori (strain 60190) [7] came to 0.75.

Regarding `Cc1ncc([N+](=O)[O-])n1CCO` [Metronidazole, metronidazole], in the assay on H. pylori (strain 60190) [7] (combination with niclosamide), the interaction with niclosamide result is reported as “partially synergistic”. The “FICI value Niclosamide” value in the assay on H. pylori (strain 60190) [7] was found to be 0.75.

Usually MIC stands for the lowest concentration that inhibits growth of the organism. By MBC is commonly meant the smallest concentration meeting the test's criterion for killing.
